Measured values taken from PMC8138313, “Identification, Selection and Immune Assessment of Liver Stage CD8 T Cell Epitopes From Plasmodium falciparum” (Frontiers in Immunology, 2021).
Where a SMILES comes first, the peptide text is derived from it.

Columns and labels:
Experiment in all cases: HLA class I binding assay (cell-free competition, fluorescence polarization)
[1] = biological target: HLA B*4402 (Homo sapiens, UniProt P01889, A223V/A65T/A93T/A95T/D201E/D98Y/E176V/E187L/E204Q/E69K/G107R/H137Y/K202T/L105A/L119I/N104T/N87E/Q56L/Q94N/R106L/R155S/R180D/S101N/S121R/S35A/S48T/T118I/V36M/W191S/Y140D/Y91S)
[2] = biological target: HLA A*0301 (Homo sapiens, UniProt P04439)
[3] = biological target: HLA A*0101 (Homo sapiens, UniProt P04439, A114D/A174V/A182V/D101N/D185E/E176A/E190D/L180R/Q94H/R68K/S129P/T187R/V100A/V91M/W191G)
[4] = biological target: HLA A*0201 (Homo sapiens, UniProt P04439, D140Y/D185E/D98H/E176V/E277Q/G131W/G231S/I119V/I121R/I166T/I218V/L300P/L318F/N151K/N90K/P208A/P217A/Q86G/Q94H/R138H/R169H/T345S)
[5] = biological target: HLA B*0702 (Homo sapiens, UniProt P01889)
[6] = biological target: HLA A*2402 (Homo sapiens, UniProt P04439, D101N/D140Y/D185E/E176V/E190D/F33S/G103R/G107R/I119L/I121M/I306V/K335N/L105A/L180Q/L300P/N151K/N90K/Q86E/Q94H/R106L/R138H/R89G/T104I/T345S/V100E/W191G/Y123F)

Compound | IC50 [1] [µM] | IC50 [5] [µM] | also measured
C[C@H](N)C(=O)N[C@@H](CO)C(=O)N[C@@H](Cc1ccccc1)C(=O)N[C@@H](CO)C(=O)N[C@@H](C)C(=O)N[C@@H](CO)C(=O)N[C@H](C(=O)NCC(=O)N[C@@H](Cc1ccc(O)cc1)C(=O)O)[C@@H](C)O (H-ASFSASTGY-OH) | 31.7 |  | IC50 [2]: 2.37 µM; IC50 [3]: > 1000 µM
CC(C)[C@H](NC(=O)[C@H](CCC(=O)O)NC(=O)[C@H](Cc1ccccc1)NC(=O)[C@@H](NC(=O)[C@H](CC(=O)O)NC(=O)[C@@H](N)CC(=O)O)[C@@H](C)O)C(=O)N[C@@H](Cc1ccc(O)cc1)C(=O)N[C@@H](CO)C(=O)N[C@@H](CCC(=O)O)C(=O)N[C@@H](Cc1ccc(O)cc1)C(=O)O (H-DDTFEVYSEY-OH; N-terminus assumed) | > 1000 |  | IC50 [3]: > 1000 µM
CC[C@H](C)[C@H](NC(=O)CNC(=O)[C@H](CO)NC(=O)[C@H](CC(N)=O)NC(=O)[C@H](CC(=O)O)NC(=O)[C@@H](N)Cc1ccccc1)C(=O)N[C@@H](CO)C(=O)N[C@@H](CC(C)C)C(=O)N[C@@H](CC(C)C)C(=O)O (H-FDNSGISLL-OH) | > 1000 |  | IC50 [4]: 229 µM
CC(C)C[C@H](NC(=O)[C@H](CO)NC(=O)[C@@H]1CCCN1C(=O)[C@H](CCCCN)NC(=O)[C@H](CC(N)=O)NC(=O)[C@H](CC(C)C)NC(=O)[C@H](CC(C)C)NC(=O)[C@H](CCCCN)NC(=O)[C@@H]1CCCN1C(=O)[C@@H](N)Cc1ccccc1)C(=O)O (H-FPKLLNKPSL-OH) |  | 73.1 | 
N=C(N)NCCC[C@H](NC(=O)[C@H](Cc1ccc(O)cc1)NC(=O)[C@H](CCCCN)NC(=O)[C@@H]1CCCN1C(=O)[C@@H](N)Cc1c[nH]cn1)C(=O)N[C@@H](CC(N)=O)C(=O)N[C@@H](Cc1ccccc1)C(=O)N[C@@H](CCCCN)C(=O)N[C@@H](Cc1ccccc1)C(=O)O (H-HPKYRNFKF-OH) |  | 0.336 | 
CC[C@H](C)[C@H](NC(=O)[C@H](CC(N)=O)NC(=O)[C@@H](NC(=O)[C@@H]1CCCN1C(=O)[C@H](CCSC)NC(=O)[C@@H]1CCCN1C(=O)[C@@H](N)Cc1c[nH]cn1)[C@@H](C)CC)C(=O)N[C@@H](CCCCN)C(=O)N[C@@H](CC(C)C)C(=O)O (H-HPMPINIKL-OH) |  | 0.168 | 
CC[C@H](C)[C@H](N)C(=O)N1CCC[C@H]1C(=O)N1CCC[C@H]1C(=O)N[C@@H](CCC(N)=O)C(=O)N[C@H](C(=O)N[C@@H](Cc1ccccc1)C(=O)N[C@@H](CC(=O)O)C(=O)N[C@@H](Cc1ccc(O)cc1)C(=O)N1CCC[C@H]1C(=O)N[C@H](C(=O)O)[C@@H](C)CC)C(C)C (H-IPPQVFDYPI-OH) |  | 245 | 
CC[C@H](C)[C@H](NC(=O)[C@H](CCC(=O)O)NC(=O)[C@H](CCCCN)NC(=O)[C@H](CCC(=O)O)NC(=O)[C@H](CCC(=O)O)NC(=O)[C@@H](N)CCCCN)C(=O)N[C@@H](CC(N)=O)C(=O)N[C@@H](CC(=O)O)C(=O)N[C@@H](CCC(=O)O)C(=O)N[C@@H](Cc1ccc(O)cc1)C(=O)O (H-KEEKEINDEY-OH; N-terminus assumed) | > 1000 |  | 
CC[C@H](C)[C@H](NC(=O)[C@@H](NC(=O)[C@@H](NC(=O)[C@H](Cc1c[nH]cn1)NC(=O)[C@H](CC(=O)O)NC(=O)[C@H](CCCCN)NC(=O)[C@H](CCCCN)NC(=O)[C@H](CCC(=O)O)NC(=O)[C@@H](N)CCCCN)[C@@H](C)CC)C(C)C)C(=O)O (H-KEKKDHIVI-OH) | 64.6 |  | 
N=C(N)NCCC[C@H](NC(=O)[C@H](Cc1c[nH]c2ccccc12)NC(=O)[C@H](Cc1ccccc1)NC(=O)[C@H](CC(N)=O)NC(=O)[C@@H]1CCCN1C(=O)[C@@H](N)CCCCN)C(=O)N[C@@H](Cc1ccccc1)C(=O)N[C@@H](CCC(N)=O)C(=O)N[C@@H](CC(=O)O)C(=O)N[C@@H](Cc1ccc(O)cc1)C(=O)O (H-KPNFWRFQDY-OH; N-terminus assumed) |  | > 1000 | 
CC(C)C[C@H](NC(=O)[C@H](CC(=O)O)NC(=O)[C@H](CCCNC(=N)N)NC(=O)[C@H](CCCNC(=N)N)NC(=O)[C@H](CC(=O)O)NC(=O)[C@H](CO)NC(=O)[C@H](CC(N)=O)NC(=O)[C@H](CC(C)C)NC(=O)[C@@H](N)CC(C)C)C(=O)O (H-LLNSDRRDL-OH) |  | 0.2 | 
CC[C@H](C)[C@H](NC(=O)[C@@H]1CCCN1C(=O)[C@@H](N)CC(C)C)C(=O)N[C@@H](CCC(=O)O)C(=O)N1CCC[C@H]1C(=O)N[C@@H](CCCCN)C(=O)N[C@@H](CCCCN)C(=O)N[C@@H](CC(C)C)C(=O)N[C@@H](C)C(=O)O (H-LPIEPKKLA-OH) |  | 561 | 
CC[C@H](C)[C@H](NC(=O)[C@H](Cc1ccccc1)NC(=O)[C@H](CCC(=O)O)NC(=O)[C@@H](NC(=O)[C@H](CC(=O)O)NC(=O)[C@H](CCC(=O)O)NC(=O)[C@H](CC(N)=O)NC(=O)[C@H](CCC(=O)O)NC(=O)[C@@H](N)CCSC)C(C)C)C(=O)O (H-MENEDVEFI-OH) | 36.9 |  | 
CC[C@H](C)[C@H](NC(=O)[C@H](CCC(=O)O)NC(=O)[C@H](CCC(=O)O)NC(=O)[C@@H](N)CC(N)=O)C(=O)N[C@H](C(=O)N[C@@H](CC(=O)O)C(=O)N[C@@H](CC(C)C)C(=O)N[C@@H](CC(C)C)C(=O)N[C@@H](CC(N)=O)C(=O)N[C@@H](CC(C)C)C(=O)O)[C@@H](C)CC (H-NEEIIDLLNL-OH) | 433 |  | 
C[C@@H](O)[C@H](NC(=O)[C@H](CC(N)=O)NC(=O)[C@H](CC(N)=O)NC(=O)[C@H](CCC(=O)O)NC(=O)[C@@H](N)CC(N)=O)C(=O)N[C@H](C(=O)N[C@@H](Cc1ccc(O)cc1)C(=O)N[C@@H](CCC(N)=O)C(=O)N[C@@H](Cc1ccc(O)cc1)C(=O)O)[C@@H](C)O (H-NENNTTYQY-OH) | 18.4 |  | 
CC(C)C[C@H](NC(=O)[C@H](CCC(N)=O)NC(=O)[C@@H](NC(=O)[C@@H]1CCCN1C(=O)[C@@H](N)CC(N)=O)C(C)C)C(=O)N[C@@H](CCCCN)C(=O)N[C@@H](CO)C(=O)N[C@@H](CCCCN)C(=O)N[C@@H](Cc1ccccc1)C(=O)O (H-NPVQLKSKF-OH) |  | 59.6 | 
CC(C)C[C@H](NC(=O)[C@H](CC(N)=O)NC(=O)[C@H](CC(C)C)NC(=O)[C@@H](N)CCCNC(=N)N)C(=O)N[C@@H](Cc1ccccc1)C(=O)N[C@@H](CS)C(=O)N[C@@H](Cc1ccccc1)C(=O)N[C@@H](CO)C(=O)N[C@@H](Cc1ccccc1)C(=O)O (H-RLNLFCFSF-OH) | > 1000 |  | IC50 [6]: 11 µM
CC(C)C[C@H](NC(=O)[C@H](Cc1ccccc1)NC(=O)[C@H](CO)NC(=O)[C@H](Cc1ccccc1)NC(=O)[C@H](CS)NC(=O)[C@H](Cc1ccccc1)NC(=O)[C@H](CC(C)C)NC(=O)[C@H](CC(N)=O)NC(=O)[C@H](CC(C)C)NC(=O)[C@@H](N)CCCNC(=N)N)C(=O)O (H-RLNLFCFSFL-OH) | 421 |  | IC50 [4]: 161 µM; IC50 [2]: 6.12 µM
CC[C@H](C)[C@H](NC(=O)[C@H](CC(N)=O)NC(=O)[C@@H](N)CCCNC(=N)N)C(=O)N[C@H](C(=O)N[C@@H](CO)C(=O)N[C@@H](CCCCN)C(=O)N[C@@H](Cc1c[nH]cn1)C(=O)N[C@H](C(=O)N[C@@H](CO)C(=O)N[C@H](C(=O)O)C(C)C)[C@@H](C)O)[C@@H](C)CC (H-RNIISKHTSV-OH) |  | 505 | 
C[C@@H](O)[C@H](NC(=O)[C@H](CC(N)=O)NC(=O)[C@H](Cc1ccc(O)cc1)NC(=O)[C@@H](NC(=O)[C@H](CO)NC(=O)[C@@H](NC(=O)[C@H](CO)NC(=O)[C@H](CCC(=O)O)NC(=O)[C@@H](N)CO)[C@@H](C)O)[C@@H](C)O)C(=O)O (H-SESTSTYNT-OH) | 103 |  | 
CC[C@H](C)[C@H](NC(=O)[C@H](CC(C)C)NC(=O)[C@@H](NC(=O)[C@@H](N)CO)[C@@H](C)CC)C(=O)N[C@@H](CO)C(=O)N[C@@H](CCCNC(=N)N)C(=O)N[C@@H](CC(C)C)C(=O)N[C@H](C(=O)N[C@@H](CC(C)C)C(=O)O)[C@@H](C)O (H-SILISRLTL-OH; N-terminus assumed) | > 1000 |  | 
CC(C)C[C@H](NC(=O)[C@H](Cc1ccccc1)NC(=O)[C@@H]1CCCN1C(=O)[C@H](Cc1c[nH]cn1)NC(=O)[C@H](CCCCN)NC(=O)[C@@H](N)CO)C(=O)N[C@@H](CCCCN)C(=O)N[C@@H](CO)C(=O)NCC(=O)N[C@@H](Cc1ccccc1)C(=O)O (H-SKHPFLKSGF-OH; N-terminus assumed) | > 1000 |  | 
CSCC[C@H](NC(=O)[C@@H](NC(=O)[C@H](CC(=O)O)NC(=O)[C@H](Cc1c[nH]cn1)NC(=O)[C@@H]1CCCN1C(=O)[C@@H](N)CO)[C@@H](C)O)C(=O)N[C@@H](CCC(N)=O)C(=O)N[C@@H](CCCCN)C(=O)N[C@@H](CC(=O)O)C(=O)N[C@@H](CC(=O)O)C(=O)O (H-SPHDTMQKDD-OH; N-terminus assumed) |  | > 1000 | 
CSCC[C@H](NC(=O)[C@H](CC(N)=O)NC(=O)[C@H](CCCCN)NC(=O)[C@H](CC(N)=O)NC(=O)[C@H](CCCCN)NC(=O)[C@H](Cc1ccccc1)NC(=O)[C@H](Cc1ccc(O)cc1)NC(=O)[C@H](CCC(=O)O)NC(=O)[C@@H](N)[C@@H](C)O)C(=O)O (H-TEYFKNKNM-OH) | 31.4 |  | 
CC[C@H](C)[C@H](NC(=O)[C@H](CCCCN)NC(=O)CNC(=O)CNC(=O)[C@H](CC(C)C)NC(=O)[C@H](CCC(N)=O)NC(=O)[C@H](CO)NC(=O)[C@H](CCC(=O)O)NC(=O)[C@@H](N)Cc1ccc(O)cc1)C(=O)O (H-YESQLGGKI-OH) | 66.3 |  | 
